Assay results: ChEMBL document CHEMBL4184156, “Repurposing Hsp90 inhibitors as antibiotics targeting histidine kinases” (Bioorg Med Chem Lett, 2017)
Converted amounts (≈) assume the structure as drawn.

Experiments:
[1] = system: Bacillus subtilis; experiment: Antimicrobial activity against Bacillus subtilis 3610 after 20 hrs by Mueller-Hinton Broth microdilution method; type: functional; settings: subsp. subtilis str. NCIB 3610, 20 h
[2] = target: T1, Sensor protein kinase WalK family protein (Streptococcus pneumoniae PCS8203, UniProt A0A0H2UQD0); experiment: Inhibition of Streptococcus pneumoniae VicK preincubated for 30 mins followed by [gamma-33P]ATP addition after 30 mins by SDS-PAGE method
T1 sequence (A0A0H2UQD0 whole entry): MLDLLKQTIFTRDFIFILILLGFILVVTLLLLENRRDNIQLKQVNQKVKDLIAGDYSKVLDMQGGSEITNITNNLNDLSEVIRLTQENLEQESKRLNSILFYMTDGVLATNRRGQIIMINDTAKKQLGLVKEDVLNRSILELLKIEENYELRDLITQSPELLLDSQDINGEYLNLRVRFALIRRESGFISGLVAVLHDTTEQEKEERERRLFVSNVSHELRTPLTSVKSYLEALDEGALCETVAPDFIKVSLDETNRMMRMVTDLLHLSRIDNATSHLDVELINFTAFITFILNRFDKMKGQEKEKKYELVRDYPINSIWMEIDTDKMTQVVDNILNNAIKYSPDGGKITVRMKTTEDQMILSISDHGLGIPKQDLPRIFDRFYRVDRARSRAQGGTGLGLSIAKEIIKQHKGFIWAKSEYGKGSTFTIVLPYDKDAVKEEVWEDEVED

[3] = Inhibition of Thermotoga maritima HK853 preincubated for 30 mins followed by B-ATPgammaS addition after 1 hr in dark by in-gel fluorescence analysis
[4] = target: T2, Chemotaxis protein CheA (Escherichia coli (strain K12), UniProt P07363); experiment: Inhibition of Escherichia coli CheA preincubated for 30 mins followed by [gamma-33P]ATP addition after 30 mins by SDS-PAGE method
T2 sequence (P07363 whole entry): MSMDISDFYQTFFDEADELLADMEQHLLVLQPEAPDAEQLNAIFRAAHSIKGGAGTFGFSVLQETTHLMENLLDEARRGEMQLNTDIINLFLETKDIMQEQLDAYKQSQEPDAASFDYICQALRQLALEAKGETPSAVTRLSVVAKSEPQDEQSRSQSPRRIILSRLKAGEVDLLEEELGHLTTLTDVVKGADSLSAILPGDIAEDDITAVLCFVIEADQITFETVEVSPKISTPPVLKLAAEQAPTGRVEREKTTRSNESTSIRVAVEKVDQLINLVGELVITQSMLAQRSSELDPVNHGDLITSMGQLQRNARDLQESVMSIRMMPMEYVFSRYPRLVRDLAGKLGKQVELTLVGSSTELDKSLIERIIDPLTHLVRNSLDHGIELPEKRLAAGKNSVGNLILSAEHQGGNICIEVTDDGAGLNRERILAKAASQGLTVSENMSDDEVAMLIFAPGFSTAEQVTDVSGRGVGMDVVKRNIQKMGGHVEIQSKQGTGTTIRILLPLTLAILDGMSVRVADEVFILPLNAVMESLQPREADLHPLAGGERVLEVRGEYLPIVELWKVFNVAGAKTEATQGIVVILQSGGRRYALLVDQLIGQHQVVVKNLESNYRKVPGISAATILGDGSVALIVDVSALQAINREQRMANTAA

[5] = system: Escherichia coli; experiment: Antimicrobial activity against Escherichia coli DC2 after 20 hrs by Mueller-Hinton Broth microdilution method; type: functional; settings: DC2, 20 h
[6] = system: Staphylococcus epidermidis; experiment: Antimicrobial activity against Staphylococcus epidermidis ATCC 35984 after 10 hrs; type: functional; settings: ATCC 35984, 10 h
[7] = target: T3, Sensor protein kinase WalK (Staphylococcus epidermidis (strain ATCC 35984 / RP62A), UniProt Q5HK19); experiment: Inhibition of recombinant Staphylococcus epidermidis ATCC 35984 N-terminal GB1-tagged YycG expressed in Escherichia coli BL21 (DE3) preincubated for 30 mins followed by ATP addition after 30 mins by kinase-glo assay
T3 sequence (Q5HK19 whole entry): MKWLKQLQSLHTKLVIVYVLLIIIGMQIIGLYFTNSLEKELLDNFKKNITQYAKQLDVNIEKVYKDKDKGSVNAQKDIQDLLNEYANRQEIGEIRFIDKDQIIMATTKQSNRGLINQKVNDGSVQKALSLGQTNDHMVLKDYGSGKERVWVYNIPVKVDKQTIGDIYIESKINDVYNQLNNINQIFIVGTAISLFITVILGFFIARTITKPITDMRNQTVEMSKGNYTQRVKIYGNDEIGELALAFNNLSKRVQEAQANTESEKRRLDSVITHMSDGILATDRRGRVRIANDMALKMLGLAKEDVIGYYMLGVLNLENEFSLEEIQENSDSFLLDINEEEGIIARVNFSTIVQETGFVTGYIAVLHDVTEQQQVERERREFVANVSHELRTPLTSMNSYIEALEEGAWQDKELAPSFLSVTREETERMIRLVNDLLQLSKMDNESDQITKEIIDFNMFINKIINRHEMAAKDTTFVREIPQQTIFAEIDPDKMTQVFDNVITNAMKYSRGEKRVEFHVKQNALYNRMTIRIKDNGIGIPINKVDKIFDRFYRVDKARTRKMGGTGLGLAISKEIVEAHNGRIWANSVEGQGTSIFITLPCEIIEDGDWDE

[8] = system: Staphylococcus aureus; experiment: Antimicrobial activity against Staphylococcus aureus 20231 after 24 hrs by double dilution method; type: functional; settings: Staphylococcus aureus, 20231, 24 h
[9] = target: T4, Phosphate regulon sensor protein phoR (Staphylococcus aureus subsp. aureus CN1, UniProt T1Y9P4); experiment: Inhibition of Staphylococcus aureus DHp-catalytic domain PhoR autophosphorylation expressed in Escherichia coli RIL in presence of gamma-32P-ATP by SDS-PAGE analysis
T4 sequence (T1Y9P4 whole entry): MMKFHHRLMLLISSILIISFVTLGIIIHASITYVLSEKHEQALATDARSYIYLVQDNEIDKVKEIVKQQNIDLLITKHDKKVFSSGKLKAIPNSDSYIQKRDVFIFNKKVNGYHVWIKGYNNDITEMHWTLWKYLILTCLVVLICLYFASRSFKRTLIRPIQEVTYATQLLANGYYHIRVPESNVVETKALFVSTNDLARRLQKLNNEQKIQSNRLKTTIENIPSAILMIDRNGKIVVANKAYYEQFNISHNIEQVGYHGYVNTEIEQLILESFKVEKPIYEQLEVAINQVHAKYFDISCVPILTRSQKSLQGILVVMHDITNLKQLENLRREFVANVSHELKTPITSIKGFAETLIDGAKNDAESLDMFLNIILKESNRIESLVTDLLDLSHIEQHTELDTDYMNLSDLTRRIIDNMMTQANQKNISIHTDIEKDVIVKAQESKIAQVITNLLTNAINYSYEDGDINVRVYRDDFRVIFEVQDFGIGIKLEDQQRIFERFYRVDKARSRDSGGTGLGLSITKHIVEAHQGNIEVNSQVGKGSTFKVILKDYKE

[10] = target: T5, Phosphate regulon sensor protein PhoR (Escherichia coli (strain K12), UniProt P08400); experiment: Inhibition of Escherichia coli DHp-catalytic domain PhoR autophosphorylation expressed in Escherichia coli RIL in presence of gamma-32P-ATP by SDS-PAGE analysis
T5 sequence (P08400 whole entry): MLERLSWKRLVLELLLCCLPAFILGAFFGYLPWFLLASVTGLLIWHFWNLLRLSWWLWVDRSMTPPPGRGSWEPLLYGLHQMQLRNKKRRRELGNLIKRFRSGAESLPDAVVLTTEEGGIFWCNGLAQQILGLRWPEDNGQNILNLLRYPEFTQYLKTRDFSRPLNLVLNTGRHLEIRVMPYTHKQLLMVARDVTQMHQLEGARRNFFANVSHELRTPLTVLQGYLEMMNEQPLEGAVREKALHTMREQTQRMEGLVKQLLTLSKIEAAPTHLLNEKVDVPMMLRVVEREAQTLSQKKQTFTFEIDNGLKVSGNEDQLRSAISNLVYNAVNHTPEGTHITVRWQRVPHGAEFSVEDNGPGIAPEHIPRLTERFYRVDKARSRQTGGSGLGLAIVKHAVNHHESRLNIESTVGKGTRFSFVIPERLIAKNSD

[11] = system: Escherichia coli; experiment: Antimicrobial activity against Escherichia coli CFT073 after 24 hrs by double dilution method; type: functional; settings: CFT073, 24 h

For O=c1cc(-c2ccc(O)c(O)c2)oc2cc(O)cc(O)c12 [LUTEOLIN], the MIC [1] was > 128 µg/mL, the IC50 [2] was 216 µM and the IC50 [3] was 15.1 µM. The IC50 [4] was 111 µM and the MIC [5] was 8 µg/mL (≈ 27.9 µM).
O=C(O)c1cccc(-c2ccc(/C=c3\sc4n(c3=O)C(c3ccc(F)cc3)C=C(c3ccccc3)N=4)o2)c1 (stereo unspecified) gave an MIC [6] of 1.6 µg/mL (≈ 3.06 µM) and an IC50 [7] of 24 µM.
Work on CCC(c1ccc(O)cc1)C(CC)c1ccc(F)cc1 (stereo unspecified) yielded an MIC [8] of 8 µg/mL (≈ 29.4 µM), an IC50 [9] of 212 µM and an IC50 [10] of 16 µM. The MIC [11] was > 500 µg/mL.
